Publication PMC12775434, “Ultra-large virtual screening unveils potent agonists of the neuromodulatory orphan receptor GPR139” (Nature Communications, 2025)
Values joined by “and” are separate entries in the source; they are usually repeats but may differ in a detail not shown here. Equal entries are not always repeated.

How the values were obtained:
Format in all cases: cell-based
[1] = target: T1, human muscarinic acetylcholine M1 receptor (M1R) (Homo sapiens, UniProt P11229); experiment: Ca2+ mobilization counter-screen in M1R-CHOk1 cells; details: individual replicates (Supplementary Figure 5)
T1 sequence (P11229 1-460): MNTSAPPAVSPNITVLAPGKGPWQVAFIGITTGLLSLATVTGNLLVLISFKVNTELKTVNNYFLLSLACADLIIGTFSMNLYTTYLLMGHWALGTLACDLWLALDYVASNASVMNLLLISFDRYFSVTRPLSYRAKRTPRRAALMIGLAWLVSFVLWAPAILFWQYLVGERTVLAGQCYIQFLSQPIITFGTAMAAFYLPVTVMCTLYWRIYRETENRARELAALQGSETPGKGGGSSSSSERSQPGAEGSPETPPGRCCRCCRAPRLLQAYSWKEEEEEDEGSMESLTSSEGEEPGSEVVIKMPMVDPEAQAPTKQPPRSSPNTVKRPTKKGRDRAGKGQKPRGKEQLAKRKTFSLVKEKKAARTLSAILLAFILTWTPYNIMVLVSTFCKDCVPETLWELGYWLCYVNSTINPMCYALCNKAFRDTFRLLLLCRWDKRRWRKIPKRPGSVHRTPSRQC
In short: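 M1R-CHOk1 cells seeded at 30,000/well for 20–24 h were loaded with 2 µM Fluo-4 AM for 1 h at 37 °C in HEPES-buffered HBSS (pH 7.4, 2.5 mM probenecid). Compounds were added after baseline reads, with DMSO at most 0.3% final. Calcium mobilization was read at 37 °C, excitation 485/emission 525 nm.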

GPR139 [2] = target: T2, GPR139 (Homo sapiens, UniProt Q6DWJ6); experiment: Ca2+ mobilization assay, agonist mode, stable GPR139-CHOk1 cell line; details: for EC50 / Emax: Supplementary Table 2, mean ± SEM; for EC50: read-out: pEC50 Ca2+ (converted); for Emax: normalized to Lundbeck Cmp 1a, read-out: Emax (%) Ca2+
T2 sequence (Q6DWJ6 1-353): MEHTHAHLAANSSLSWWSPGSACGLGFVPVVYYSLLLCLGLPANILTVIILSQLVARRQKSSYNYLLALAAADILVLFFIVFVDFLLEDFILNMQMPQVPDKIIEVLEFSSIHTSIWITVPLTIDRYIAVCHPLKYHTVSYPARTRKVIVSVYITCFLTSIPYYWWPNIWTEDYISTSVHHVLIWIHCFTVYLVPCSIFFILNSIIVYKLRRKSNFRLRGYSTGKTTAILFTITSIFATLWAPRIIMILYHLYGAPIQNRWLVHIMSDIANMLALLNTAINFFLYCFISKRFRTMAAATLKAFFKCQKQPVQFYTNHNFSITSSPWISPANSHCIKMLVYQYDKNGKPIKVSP
In short: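 Agonist activity of compounds is assessed in stably transfected CHO-K1 cells using the calcium dye Fluo-4 at 37 °C in HEPES-buffered HBSS (pH 7.4). Efficacy is expressed relative to the reference agonist Lundbeck Cmp 1a, set as 100%.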

GPR139 [3] = target: T2, GPR139; experiment: Ca2+ mobilization assay, antagonist mode (EC80 800 nM Lundbeck Cmp 1a after 20 min preincubation), GPR139-CHOk1; details: individual replicates (Supplementary Figure 4)
In short: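 Fluo-4-loaded GPR139-CHOk1 cells in HEPES-buffered HBSS (pH 7.4, 2.5 mM probenecid) given test compounds at 10 µM, then after 20 min challenged with 800 nM Lundbeck Cmp 1a (EC80). Calcium fluorescence read at 37 °C, 485/525 nm.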

[4] = Agonist mode, individual replicates (Supplementary Figure 4)
[5] = log [Compound] M = -4.5, individual replicate columns
[6] = log [Compound] M = -5.0, individual replicate columns
[7] = log [Compound] M = -5.5, individual replicate columns
[8] = log [Compound] M = -6.0, individual replicate columns
[9] = log [Compound] M = -6.5, individual replicate columns
[10] = log [Compound] M = -7.0, individual replicate columns
[11] = log [Compound] M = -7.5, individual replicate columns
[12] = log [Compound] M = -8.0, individual replicate columns
[13] = log [Compound] M = -8.5, individual replicate columns
[14] = log [Compound] M = -9.0, individual replicate columns

SMILES | Ca2+ signal (% of Carbachol) [1] | Ca2+ signal (% of Cmp 1a) (GPR139 [2]; [4]) | fold decrease in potency relative to a similar phenyl substituted compound (1.3) (GPR139 [2]; Ca2+ mobilization EC50) | EC50 (GPR139 [2]) | Emax (GPR139 [2]) | Ca2+ signal (% of Cmp 1a) (GPR139 [2]; [5]) | Ca2+ signal (% of Cmp 1a) (GPR139 [2]; [6]) | Ca2+ signal (% of Cmp 1a) (GPR139 [2]; [7]) | Ca2+ signal (% of Cmp 1a) (GPR139 [2]; [8]) | Ca2+ signal (% of Cmp 1a) (GPR139 [2]; [9]) | Ca2+ signal (% of Cmp 1a) (GPR139 [2]; [10]) | Ca2+ signal (% of Cmp 1a) (GPR139 [2]; [11]) | Ca2+ signal (% of Cmp 1a) (GPR139 [2]; [12]) | Ca2+ signal (% of Cmp 1a) (GPR139 [2]; [13]) | Ca2+ signal (% of Cmp 1a) (GPR139 [2]; [14]) | Ca2+ signal (% of Cmp 1a) (GPR139 [3])
Cc1cc(-c2nc(CC(=O)NC(C)c3ccccc3)no2)ccn1 (stereo not shown) [Compound 1.19, CC(C1=CC=CC=C1)NC(CC2=NOC(C3=CC(C)=NC=C3)=N2)=O] | 8 % of Carbachol and -12 % of Carbachol and 7 % of Carbachol | 76 % of Cmp 1a and 74 % of Cmp 1a and 71 % of Cmp 1a | 4- to 16 fold | 1000 nM | 109 ± 10% | 117 % of Cmp 1a and 90 % of Cmp 1a and 116 % of Cmp 1a | 97 % of Cmp 1a and 89 % of Cmp 1a and 99 % of Cmp 1a | 77 % of Cmp 1a and 75 % of Cmp 1a and 88 % of Cmp 1a | 61 % of Cmp 1a and 62 % of Cmp 1a and 60 % of Cmp 1a | 30 % of Cmp 1a and 19 % of Cmp 1a and 26 % of Cmp 1a | 9 % of Cmp 1a and 6.33 % of Cmp 1a and 5.33 % of Cmp 1a | 4.67 % of Cmp 1a and 0.667 % of Cmp 1a and -2.67 % of Cmp 1a | 3 % of Cmp 1a and -3.33 % of Cmp 1a and -3.67 % of Cmp 1a | 13 % of Cmp 1a and -4.67 % of Cmp 1a and 2.33 % of Cmp 1a | 7 % of Cmp 1a and -8 % of Cmp 1a and -1.33 % of Cmp 1a | 5.67 % of Cmp 1a and -2 % of Cmp 1a and -8 % of Cmp 1a
Cc1ccc(-c2nc(CC(=O)NC(C)c3ccccc3)no2)cc1C (stereo not shown) [Compound 1.20, CC(C1=CC=CC=C1)NC(CC2=NOC(C3=CC(C)=C(C)C=C3)=N2)=O] | -9 % of Carbachol and 12 % of Carbachol and 5 % of Carbachol | 61 % of Cmp 1a and 51 % of Cmp 1a and 42 % of Cmp 1a | – | 1260 nM | 86 ± 11% | 64 % of Cmp 1a and 88 % of Cmp 1a and 90 % of Cmp 1a | 59 % of Cmp 1a and 87 % of Cmp 1a and 93 % of Cmp 1a | 48 % of Cmp 1a and 72 % of Cmp 1a and 74 % of Cmp 1a | 21 % of Cmp 1a and 45 % of Cmp 1a and 55 % of Cmp 1a | 9 % of Cmp 1a and 20 % of Cmp 1a and 28 % of Cmp 1a | 10 % of Cmp 1a and 20 % of Cmp 1a and 26 % of Cmp 1a | 10 % of Cmp 1a and -2 % of Cmp 1a and 9 % of Cmp 1a | 2 % of Cmp 1a and -1.33 % of Cmp 1a and 4.67 % of Cmp 1a | 7 % of Cmp 1a and -0.667 % of Cmp 1a and -6 % of Cmp 1a | 5 % of Cmp 1a and 1.33 % of Cmp 1a and 10 % of Cmp 1a | 4 % of Cmp 1a and 29 % of Cmp 1a and -0.333 % of Cmp 1a
